For two compounds, Kd results are on record in publication PMC3433162 (Analytical chemistry, 2012).

One assay concerns the target carbonic anhydrase. As to conditions: read-out: Kd or Ki; cited from earlier work.
Assay [1] addresses bovine carbonic anhydrase (BCA) (Bos taurus, UniProt P00921). Description: biochemical. The class given is binding.

Chain of bovine carbonic anhydrase (BCA) (P00921 whole entry): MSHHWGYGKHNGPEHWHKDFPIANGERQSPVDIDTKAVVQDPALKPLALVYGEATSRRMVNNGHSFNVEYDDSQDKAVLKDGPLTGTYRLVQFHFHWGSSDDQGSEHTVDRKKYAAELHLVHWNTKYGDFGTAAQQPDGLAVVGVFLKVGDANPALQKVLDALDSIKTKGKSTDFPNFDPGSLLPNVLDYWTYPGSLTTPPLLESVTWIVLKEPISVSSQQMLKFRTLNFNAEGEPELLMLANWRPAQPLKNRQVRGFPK

As to methane sulfonamide, the Kd (commonly the equilibrium constant for the complex coming apart) at carbonic anhydrase is 70 to 320 µM. For the compound `Cc1ccc(S(N)(=O)=O)cc1` [4-methylbenzene sulfonamide], the Kd in assay [1] worked out at 0.29 µM.
